From patent publication EP4679096A1, “BIOMARKERS AND METHOD FOR ESTIMATING BRAIN NEURODEGENERATIVE CONDITION” (SHIMADZU CORPORATION, priority 2023, dated 2024)
Peptide text beside a SMILES is read from it.

Test: Effect of plasma handling (thawed, about 2 hours at room temperature, re-frozen: RT2h-FT1) on NI of Ng peptides
Type: in vitro ADME, human
Details: FIG. 1
Description: Among the 161 samples, samples obtained by thawing cryopreserved samples, placing the samples at room temperature for about 2 hours, and then re-freezing the samples are also included. In order to investigate the influence of this process on the measured value of the Ng peptide, the Ng peptide to be analyzed was evaluated using a part of the sample. In the measurement of the sample that was thawed, left at room temperature for about 2 hours, and then re-frozen (sample under the RT2h-FT1 condition), the above [purification] [mass spectrometry] was performed except that SIL-Ng50-78 was used as the internal standard peptide, and the internal standard peptide was diluted with the first buffer. The above [purification] [mass spectrometry] was also performed on the samples not subjected to the RT2h-FT1 process (samples under control conditions). For these, data processing was performed using data obtained by simultaneously measuring SIL-Ng50-78 and SIL-Ng45-75 and SIL-Ng24-75 such that the measured value of the RT2h-FT1 condition normalized with SIL-Ng50-78 was NI normalized with SIL-Ng45-75 and SIL-Ng24-75.
From this, it can be seen that the decomposition of the Ng peptide proceeds by the time for which the plasma is stored in a thawed state and/or freeze-thawing. […]

SMILES	change of NI under the RT2h-FT1 condition compared with the Control condition (decomposition in plasma)
CC[C@H](C)[C@H](NC(=O)[C@@H](N)CCCCN)C(=O)N[C@@H](CCCCN)C(=O)N[C@@H](CO)C(=O)NCC(=O)N[C@@H](CCC(=O)O)C(=O)N[C@@H](CCCNC(=N)N)C(=O)NCC(=O)N[C@@H](CCCNC(=N)N)C(=O)N[C@@H](CCCCN)C(=O)NCC(=O)N1CCC[C@H]1C(=O)NCC(=O)N1CCC[C@H]1C(=O)NCC(=O)NCC(=O)N1CCC[C@H]1C(=O)NCC(=O)NCC(=O)N[C@@H](C)C(=O)NCC(=O)N[C@H](C(=O)N[C@@H](C)C(=O)N[C@@H](CCCNC(=N)N)C(=O)NCC(=O)NCC(=O)N[C@@H](C)C(=O)NCC(=O)NCC(=O)NCC(=O)N1CCC[C@H]1C(=O)O)C(C)C [Ng45-75] (H-KIKSGERGRKGPGPGGPGGAGVARGGAGGGP-OH)	smaller decrease width due to decomposition than the other Ng peptides
CC(C)[C@H](NC(=O)CNC(=O)[C@H](C)NC(=O)CNC(=O)CNC(=O)[C@@H]1CCCN1C(=O)CNC(=O)CNC(=O)[C@@H]1CCCN1C(=O)CNC(=O)[C@@H]1CCCN1C(=O)CNC(=O)[C@H](CCCCN)NC(=O)[C@H](CCCNC(=N)N)NC(=O)CNC(=O)[C@H](CCCNC(=N)N)NC(=O)[C@@H](N)CCC(=O)O)C(=O)N[C@@H](C)C(=O)N[C@@H](CCCNC(=N)N)C(=O)NCC(=O)NCC(=O)N[C@@H](C)C(=O)NCC(=O)NCC(=O)NCC(=O)N1CCC[C@H]1C(=O)O [Ng50-75] (H-ERGRKGPGPGGPGGAGVARGGAGGGP-OH)	smaller decrease width due to decomposition than the other Ng peptides
